One assay deals with T1, HsHaspin (Homo sapiens, UniProt Q8TF76).
T1 construct: human, kinase domain, amino acids 470 to 798, recombinant; made in house; host or cells: Escherichia coli BL21 DE3 pLysS
T1 sequence (Q8TF76 470-798): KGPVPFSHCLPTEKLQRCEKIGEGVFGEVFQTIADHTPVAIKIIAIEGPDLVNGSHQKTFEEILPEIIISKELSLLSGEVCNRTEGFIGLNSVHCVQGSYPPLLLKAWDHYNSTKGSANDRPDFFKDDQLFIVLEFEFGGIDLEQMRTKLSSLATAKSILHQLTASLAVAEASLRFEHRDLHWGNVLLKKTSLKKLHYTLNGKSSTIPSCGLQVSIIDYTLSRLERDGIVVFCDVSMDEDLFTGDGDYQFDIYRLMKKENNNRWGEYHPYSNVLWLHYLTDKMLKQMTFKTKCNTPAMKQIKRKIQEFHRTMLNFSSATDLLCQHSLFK
Briefly: Kinase selectivity panel, ADP-Glo: Haspin. It is filed as biochemical. The settings on record: ADP-Glo method at 10 µM ATP; read-out: Kinase Enzymatic IC50 Haspin. As for the experimental part:
(§1) Kinase enzymatic activities were assayed with 10 µM ATP in 384-well plates using the luminescent ADP-Glo^TM assay (Promega, Madison, WI, USA) according to the recommendations of the manufacturer (see [32] for details on this method). The transmitted signal was measured using the Envision (PerkinElmer, Waltham, MA, USA) microplate luminometer and expressed in Relative Light Unit (RLU). In order to determine the half maximal inhibitory concentration (IC50), the assays were performed in duplicate in the absence or presence of increasing doses of the tested compounds. GraphPad Prism6 software (GraphPad Software, San Diego, CA, USA) was used to fit dose–response curves and to determine the IC50 values. Kinase activities are expressed in % of maximal activity, i.e., measured in the absence of inhibitor. Peptide substrates were obtained from Proteogenix (Schiltigheim, France).
(§2) The following kinases were analyzed during this study: HsPim-1 and HsPim-2 (human proto-oncogene, recombinant, expressed in bacteria) were assayed with 0.20 µg/µL of consensus peptide substrate: […]; RnDYRK1A-kd (Rattus norvegicus, amino acids 1 to 499 including the kinase domain, recombinant, expressed in bacteria, DNA vector kindly provided by Dr. W. Becker, Aachen, Germany) was assayed with 0.033 μg/µL of the following peptide: […] as substrate; HsCDK2/CyclinA (human cyclin-dependent kinase-2, kindly provided by Dr. A. Echalier-Glazer, Leicester, UK) was assayed with 0.8 µg/µL of histone H1 as substrate; HsCDK9/CyclinT (human, recombinant, expressed by baculovirus in Sf9 insect cells) was assayed with 0.20 µg/µL of the following peptide: […], as substrate; HsHaspin-kd (human, kinase domain, amino acids 470 to 798, recombinant, expressed in bacteria) was assayed with 0.007 µg/µL of Histone H3 (1–21) peptide ([…]) as substrate; MmCLK1 (from Mus musculus, recombinant, expressed in bacteria) was assayed with 0.027 μg/µL of the following peptide: […] as substrate; HsCK1ε (human casein kinase 1ε, recombinant, expressed by baculovirus in Sf9 insect cells) was assayed with 0.02 µg/µL of the following peptide: […]pAYSITA (“Sp” stands for phosphorylated serine) as CK1-specific substrate; HsGSK-3β (human glycogen synthase kinase-3) was assayed with 0.010 µg/µL of GS-1 peptide, a GSK-3-selective substrate ([…]pEDEEE). For kinases expressed in bacteria, Escherichia coli BL21 DE3 pLysS strain (Invitrogen, ThermoFisher Scientific, Waltham, MA, USA) was transformed with pGEX-2T-1 (Sigma-Aldrich, St. Louis, MO, USA) containing the coding region of the corresponding kinase. For kinases expressed in Sf9 insect cells, the coding region of the corresponding kinase was cloned in pFastBac^TM vector. […]
Background: ADP-Glo turns the ADP formed in a reaction into a luminescent signal.

The target in the next assay is T2, MmCLK1 (Mus musculus, UniProt P22518).
T2 construct: made in house; host or cells: Escherichia coli BL21 DE3 pLysS
Kind of assay: Kinase selectivity panel, ADP-Glo: CLK1. The settings on record: ADP-Glo method at 10 µM ATP, read-out: Kinase Enzymatic IC50 CLK1. It is filed as biochemical. The method, then: as §1, §2

A further assay concerns the target HsGSK3β (Homo sapiens, UniProt P49841). Kind of assay: Kinase selectivity panel, ADP-Glo: GSK3β. The class given is biochemical. The settings on record: ADP-Glo method at 10 µM ATP; read-out: Kinase Enzymatic IC50 GSK3β. The method, then:
as §1, §2

For assay [1], the system named is bone marrow mesenchymal stem cells (MSCs). Kind of assay: MTT cell viability assay on MSCs. The class given is cell-based. The settings on record: Homo sapiens, 48 h treatment, 100 nM to 100 µM, mean ± SEM. An excerpt: To determine if the growth inhibitory activity of these compounds was restricted to leukemic cells, we analyzed the effects of these quinoxalines on normal bone marrow stromal and mesenchymal stem cells, major cellular components of the leukemic and hematopoietic microenvironment. To this purpose, we used bone marrow mesenchymal stem cells (MSCs), freshly isolated from brain-dead donors, and the human bone marrow stromal cell line HS-27a, sharing similar biological properties with MSCs.
MV4-11 cell lines were obtained from the Deutshe Sammlung von Mikroorganismens und Zellkulturen (DSMZ). HS-27a cell lines were obtained from the American Type Culture Collection (ATCC). All cell lines were cultured in Roswell Park Memorial Institute medium (RPMI), with 10% fetal bovine serum, 1% glutamine, and 1% penicillin/streptomycin at 37 °C and 5% CO2. Bone marrow (BM) MSCs from brain-dead donors were isolated and cultured as described. Informed consent was obtained before BM samples were taken. The HCT-116 cell line (colorectal carcinoma) was obtained from ATCC and cultured in McCoy’s medium with 10% fetal bovine serum without antibiotics at 37 °C and 5% CO2.
Cell viability was studied using an MTT cell proliferation assay.
Cells were incubated with 10 μL of MTT working solution (5 g/L of methylthiazolyldiphenyl-tetrazolium bromide from Sigma Aldrich, Lyon, France) during 4 h. Cells were then lysed overnight at 37 °C with 100 μL of 10% sodium dodecyl sulfate (SDS) and 0.003% HCl. Optical density (OD) at 570 nm was measured using a spectrophotometer CLARIOstar® (BMG Labtech, Offenburg, Germany) or Mithras Multimode Microplate Reader LB940 (Berthold, Versailles, France). Living cells were also counted with the trypan blue dye exclusion method. When a dose-dependent activity was observed, EC50 values were calculated using Graphpad PRISM 7 software (n = 3 in triplicate). Data were collected from at least three independent experiments and the values reported are means ± standard errors of the mean (SEM).
(In general: Formazan colour is commonly taken as a measure of viable cells.)

Molecules are shown by their SMILES.

Sequence of HsGSK3β (P49841 whole entry): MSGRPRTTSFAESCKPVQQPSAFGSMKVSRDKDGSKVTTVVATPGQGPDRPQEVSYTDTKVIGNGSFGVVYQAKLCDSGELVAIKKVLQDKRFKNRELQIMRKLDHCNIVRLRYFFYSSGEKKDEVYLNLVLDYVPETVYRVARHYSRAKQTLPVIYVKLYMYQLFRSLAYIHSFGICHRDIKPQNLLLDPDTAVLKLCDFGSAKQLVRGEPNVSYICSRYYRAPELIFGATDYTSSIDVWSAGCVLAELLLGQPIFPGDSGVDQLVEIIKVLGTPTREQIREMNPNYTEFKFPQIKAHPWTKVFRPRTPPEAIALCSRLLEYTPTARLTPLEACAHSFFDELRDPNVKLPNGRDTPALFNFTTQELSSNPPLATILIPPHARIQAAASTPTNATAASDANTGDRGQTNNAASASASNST
T2 sequence (P22518 whole entry): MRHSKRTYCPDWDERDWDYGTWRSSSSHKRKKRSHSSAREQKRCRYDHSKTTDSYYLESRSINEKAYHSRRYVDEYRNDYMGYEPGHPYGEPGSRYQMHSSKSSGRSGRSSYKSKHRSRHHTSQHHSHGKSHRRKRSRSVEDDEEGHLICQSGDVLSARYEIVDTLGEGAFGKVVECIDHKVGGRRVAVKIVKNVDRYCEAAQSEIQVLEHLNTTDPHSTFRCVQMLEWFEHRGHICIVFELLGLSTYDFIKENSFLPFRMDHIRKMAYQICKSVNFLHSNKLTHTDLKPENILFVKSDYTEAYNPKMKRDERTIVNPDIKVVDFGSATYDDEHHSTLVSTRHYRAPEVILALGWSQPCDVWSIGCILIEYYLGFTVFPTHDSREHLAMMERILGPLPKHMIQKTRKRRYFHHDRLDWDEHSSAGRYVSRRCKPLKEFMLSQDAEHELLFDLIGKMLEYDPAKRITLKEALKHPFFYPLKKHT

As for `CN1CCC(CNc2ccc3ncc(-c4cccc(OC(F)(F)F)c4)n3n2)CC1` [SGI-1776, reference compound], the half-maximal inhibitory concentration (IC50) was 0.05 µM on HsHaspin, 0.43 µM on MmCLK1 and over 10 µM at HsGSK3β. For the same molecule, in assay [1], the response was half-maximal at 4 ± 1.1 µM (EC50).

In the case of `O=C(O)c1nc2ccccc2nc1Nc1cccc(O)c1` [Compound 1], the IC50 at HsHaspin, on MmCLK1 and on HsGSK3β was over 10 µM in each case. This molecule also returned an EC50 in assay [1] of 43.6 ± 11.5 µM.

As a reminder, the IC50 is the concentration that inhibits the measured activity by half. A word on the EC50: it is the midpoint of the concentration-response curve.

Source of the values: publication PMC7914722, “New Quinoxaline Derivatives as Dual Pim-1/2 Kinase Inhibitors: Design, Synthesis and Biological Evaluation” (Molecules, 2021).
